According to patent publication US8987195B2 (priority 2012, dated 2015):
Read-outs that look alike come from different tables or passages of the source.

Legend:
HCV genotype 1b replicon = assay: HCV replicon assay, genotype 1b replicon EC50; format: cell-based, Hepatitis C virus; conditions: Hepatitis C virus, HCV replicon, genotype 1b, read-out: EC50 [gt-1b]
In short: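 Readout was replicon RNA copy number, by 32P-probe protection or TaqMan normalized to cellular cyclophilin A RNA, or luciferase activity for luciferase:Neo^r fusion lines. Cells were exposed to serially diluted compound for 24-48 hours without G418, then washed and lysed. EC50 derived from four-parameter fit relative to DMSO.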

[1] = target: HCV NS3/4A protease genotype 1b (Hepatitis C virus genotype 1b, UniProt P26663); assay: HCV NS3/4A protease time-resolved fluorescence (TRF) assay, Ki against genotype 1b; format: biochemical; conditions: IC50 [gt-1b], NS3/4A protease TRF assay, genotype 1b enzyme 0.2 nM
Chain of HCV NS3/4A protease genotype 1b (P26663 1027-1657): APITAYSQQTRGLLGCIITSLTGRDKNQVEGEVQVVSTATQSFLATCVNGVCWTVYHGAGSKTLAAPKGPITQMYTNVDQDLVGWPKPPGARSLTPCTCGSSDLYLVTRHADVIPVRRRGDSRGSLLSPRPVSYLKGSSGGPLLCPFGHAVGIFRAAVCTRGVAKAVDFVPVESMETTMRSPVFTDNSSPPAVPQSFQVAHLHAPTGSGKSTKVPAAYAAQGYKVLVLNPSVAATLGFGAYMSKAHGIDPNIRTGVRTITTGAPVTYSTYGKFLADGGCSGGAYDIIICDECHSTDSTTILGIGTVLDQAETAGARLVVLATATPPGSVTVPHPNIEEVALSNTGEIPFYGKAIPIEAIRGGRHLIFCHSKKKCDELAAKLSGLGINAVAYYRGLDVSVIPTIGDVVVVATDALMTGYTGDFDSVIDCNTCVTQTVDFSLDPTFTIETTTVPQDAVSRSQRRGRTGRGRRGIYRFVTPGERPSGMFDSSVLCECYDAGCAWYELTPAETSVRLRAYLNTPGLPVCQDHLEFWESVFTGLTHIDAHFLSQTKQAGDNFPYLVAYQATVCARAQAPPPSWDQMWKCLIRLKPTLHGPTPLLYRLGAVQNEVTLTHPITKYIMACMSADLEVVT
Chain of HCV NS3/4A protease genotype 1b (P26663 1658-1711): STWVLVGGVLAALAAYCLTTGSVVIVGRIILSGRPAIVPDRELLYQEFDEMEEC
In short: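 Ki values come from IC50 fits corrected for substrate concentration and KM. The time-resolved fluorescence protease reaction used 25 nM peptide substrate, 2.5 h, room temperature, pH 7.5 HEPES buffer, after 30 min enzyme–inhibitor preincubation.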

Structure (SMILES) | EC50 (HCV genotype 1b replicon) [nM] | IC50 [1] [nM] | EC50 (HCV genotype 1b replicon; K+ salt) [nM] | IC50 ([1]; K+ salt) [nM]
COc1ccc2nc(C(F)(F)F)c3c(c2c1)CC[C@]1(C[C@H]2C(=O)N[C@]4(C(=O)NS(=O)(=O)C5(C)CC5)C[C@H]4/C=C\CCCCC[C@H](NC(=O)OC4(C(C)C)CC4)C(=O)N2C1)O3 [Example 449, 1-(propan-2-yl)cyclopropyl [(2R,6S,12Z,13aS,14aR,16aS)-9′-methoxy-14a-{[(1-methylcyclopropyl)sulfonyl]carbamoyl}-5,16-dioxo-5′-(trifluoromethyl)-1,1′,2′,5,6,7,8,9,10,11,13a,14,14a,15,16,16a-hexadecahydrospiro[cyclopropa[e]pyrrolo[1,2-a][1,4]diazacyclopentadecine-2,3′-pyrano[2,3-c]quinolin]-6-yl]carbamate] | 1.39 | 0.007 |  | 
COc1ccc2nc(C(F)(F)F)c3c(c2c1)CC[C@]1(C[C@H]2C(=O)N[C@]4(C(=O)NS(=O)(=O)C5(C)CC5)C[C@H]4/C=C\CCCCC[C@H](NC(=O)OC4CCC4)C(=O)N2C1)O3 [Example 450, cyclobutyl [(2R,6S,12Z,13aS,14aR,16aS)-9′-methoxy-14a-{[(1-methylcyclopropyl)sulfonyl]carbamoyl}-5,16-dioxo-5′-(trifluoromethyl)-1,1′,2′,5,6,7,8,9,10,11,13a,14,14a,15,16,16a-hexadecahydrospiro[cyclopropa[e]pyrrolo[1,2-a][1,4]diazacyclopentadecine-2,3′-pyrano[2,3-c]quinolin]-6-yl]carbamate] | 1.69 | 0.019 |  | 
CCC1(OC(=O)N[C@H]2CCCCC/C=C\[C@@H]3C[C@@]3(C(=O)NS(=O)(=O)C3(C)CC3)NC(=O)[C@@H]3C[C@]4(CCc5c(c(C(F)(F)F)nc6ccc(OC)cc56)O4)CN3C2=O)CC1 [Example 452, 1-ethylcyclopropyl [(2R,6S,12Z,13aS,14aR,16aS)-9′-methoxy-14a-{[(1-methylcyclopropyl)sulfonyl]carbamoyl}-5,16-dioxo-5′-(trifluoromethyl)-1,1′,2′,5,6,7,8,9,10,11,13a,14,14a,15,16,16a-hexadecahydrospiro[cyclopropa[e]pyrrolo[1,2-a][1,4]diazacyclopentadecine-2,3′-pyrano[2,3-c]quinolin]-6-yl]carbamate] | 2.4 | 0.03 |  | 
COCCCOc1ccc2nc(C)c3c(c2c1)CC[C@]1(C[C@H]2C(=O)N[C@]4(C(=O)NS(=O)(=O)C5(C)CC5)C[C@H]4/C=C\CCCCC[C@H](NC(=O)OCC(C)(C)C)C(=O)N2C1)O3 [Example 453, 2,2-dimethylpropyl [(2R,6S,12Z,13aS,14aR,16aS)-9′-(3-methoxypropoxy)-5′-methyl-14a-{[(1-methylcyclopropyl)sulfonyl]carbamoyl}-5,16-dioxo-1,1′,2′,5,6,7,8,9,10,11,13a,14,14a,15,16,16a-hexadecahydrospiro[cyclopropa[e]pyrrolo[1,2-a][1,4]diazacyclopentadecine-2,3′-pyrano[2,3-c]quinolin]-6-yl]carbamate] | 1.78 | 0.017 |  | 
COc1ccc2nc(C3CC3)c3c(c2c1)[C@H](F)C[C@]1(C[C@H]2C(=O)N[C@]4(C(=O)NS(=O)(=O)C5(C)CC5)C[C@H]4/C=C\CCCCC[C@H](NC(=O)OCC(C)C)C(=O)N2C1)O3 [Example 454, 2-methylpropyl [(1′R,2S,6S,12Z,13aS,14aR,16aS)-5′-cyclopropyl-1′-fluoro-9′-methoxy-14a-{[(1-methylcyclopropyl)sulfonyl]carbamoyl}-5,16-dioxo-1,1′,2′,5,6,7,8,9,10,11,13a,14,14a,15,16,16a-hexadecahydrospiro[cyclopropa[e]pyrrolo[1,2-a][1,4]diazacyclopentadecine-2,3′-pyrano[2,3-c]quinolin]-6-yl]carbamate] |  |  | 1.38 | 0.024
COc1ccc2nc(C3CC3)c3c(c2c1)[C@H](F)C[C@]1(C[C@H]2C(=O)N[C@]4(C(=O)NS(=O)(=O)C5(C)CC5)C[C@H]4/C=C\CCCCC[C@H](NC(=O)OCC(C)(C)C)C(=O)N2C1)O3 [Example 455, 2,2-dimethylpropyl [(1′R,2S,6S,12Z,13aS,14aR,16aS)-5′-cyclopropyl-1′-fluoro-9′-methoxy-14a-{[(1-methylcyclopropyl)sulfonyl]carbamoyl}-5,16-dioxo-1,1′,2′,5,6,7,8,9,10,11,13a,14,14a,15,16,16a-hexadecahydrospiro[cyclopropa[e]pyrrolo[1,2-a][1,4]diazacyclopentadecine-2,3′-pyrano[2,3-c]quinolin]-6-yl]carbamate] |  |  | 1.55 | 0.04
COc1ccc2nc(C3CC3)c3c(c2c1)[C@H](F)C[C@]1(C[C@H]2C(=O)N[C@]4(C(=O)NS(=O)(=O)C5(C)CC5)C[C@H]4/C=C\CCCCC[C@H](NC(=O)OC(C)C)C(=O)N2C1)O3 [Example 456, propan-2-yl [(1′R,2S,6S,12Z,13aS,14aR,16aS)-5′-cyclopropyl-1′-fluoro-9′-methoxy-14a-{[(1-methylcyclopropyl)sulfonyl]carbamoyl}-5,16-dioxo-1,1′,2′,5,6,7,8,9,10,11,13a,14,14a,15,16,16a-hexadecahydrospiro[cyclopropa[e]pyrrolo[1,2-a][1,4]diazacyclopentadecine-2,3′-pyrano[2,3-c]quinolin]-6-yl]carbamate] |  |  | 1.41 | 0.021
COc1ccc2nc(C3CC3)c3c(c2c1)[C@H](F)C[C@]1(C[C@H]2C(=O)N[C@]4(C(=O)NS(=O)(=O)C5(C)CC5)C[C@H]4/C=C\CCCCC[C@H](NC(=O)O[C@H](C)C(C)C)C(=O)N2C1)O3 [Example 457, (2R)-3-methylbutan-2-yl [(1′R,2S,6S,12Z,13aS,14aR,16aS)-5′-cyclopropyl-1′-fluoro-9′-methoxy-14a-{[(1-methylcyclopropyl)sulfonyl]carbamoyl}-5,16-dioxo-1,1′,2′,5,6,7,8,9,10,11,13a,14,14a,15,16,16a-hexadecahydrospiro[cyclopropa[e]pyrrolo[1,2-a][1,4]diazacyclopentadecine-2,3′-pyrano[2,3-c]quinolin]-6-yl]carbamate] |  |  | 1.17 | 0.068
CC(C)(C)OC(=O)N[C@H]1CCCCC/C=C\[C@@H]2C[C@@]2(C(=O)NS(=O)(=O)C2(C)CC2)NC(=O)[C@@H]2C[C@]3(CCc4c(c(C(F)(F)F)nc5ccc(OCF)cc45)O3)CN2C1=O [Example 458, tert-butyl [(2R,6S,12Z,13aS,14aR,16aS)-9′-(fluoromethoxy)-14a-{[(1-methylcyclopropyl)sulfonyl]carbamoyl}-5,16-dioxo-5′-(trifluoromethyl)-1,1′,2′,5,6,7,8,9,10,11,13a,14,14a,15,16,16a-hexadecahydrospiro[cyclopropa[e]pyrrolo[1,2-a][1,4]diazacyclopentadecine-2,3′-pyrano[2,3-c]quinolin]-6-yl]carbamate] | 1.43 | 0.015 |  | 
COc1ccc2nc(C(F)(F)F)c3c(c2c1)[C@H](F)C[C@]1(C[C@H]2C(=O)N[C@]4(C(=O)NS(=O)(=O)C5(C)CC5)C[C@H]4/C=C\CCCCC[C@H](NC(=O)OCC(C)(C)C)C(=O)N2C1)O3 [Example 462, 2,2-dimethylpropyl [(1′R,2S,6S,12Z,13aS,14aR,16aS)-1′-fluoro-9′-methoxy-14a-{[(1-methylcyclopropyl)sulfonyl]carbamoyl}-5,16-dioxo-5′-(trifluoromethyl)-1,1′,2′,5,6,7,8,9,10,11,13a,14,14a,15,16,16a-hexadecahydrospiro[cyclopropa[e]pyrrolo[1,2-a][1,4]diazacyclopentadecine-2,3′-pyrano[2,3-c]quinolin]-6-yl]carbamate] | 5.75 | 0.036 |  | 
